This test deals with T1, human OX2R (Homo sapiens, UniProt O43614).
T1 construct: expressed in transfected cells; host or cells: CHO (Chinese hamster ovary) cells, grown under G418 selection
T1 sequence (O43614 1-444): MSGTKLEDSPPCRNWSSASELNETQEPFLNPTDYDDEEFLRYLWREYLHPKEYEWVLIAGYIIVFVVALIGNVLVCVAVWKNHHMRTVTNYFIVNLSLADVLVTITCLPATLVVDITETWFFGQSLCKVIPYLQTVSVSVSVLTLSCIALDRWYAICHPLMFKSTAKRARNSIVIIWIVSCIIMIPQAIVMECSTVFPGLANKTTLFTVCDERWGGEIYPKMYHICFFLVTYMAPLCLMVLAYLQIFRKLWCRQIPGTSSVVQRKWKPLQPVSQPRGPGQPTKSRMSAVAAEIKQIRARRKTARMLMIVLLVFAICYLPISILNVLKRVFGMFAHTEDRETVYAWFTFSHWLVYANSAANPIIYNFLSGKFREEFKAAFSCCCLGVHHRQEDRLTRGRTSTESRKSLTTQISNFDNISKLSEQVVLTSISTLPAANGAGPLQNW
As to the kind of experiment: IPOne (IP-1 accumulation) orexin receptor agonist assay in CHO cells expressing human OX2R. In kind it is cell-based. Conditions: hOX2R IP-One assay, percent of mean max effect of a reference compound at 1 uM with 100% activity established by comparison to Orexin A. From the text: The utility of the compounds in accordance with the present invention as orexin receptor OX1R and/or OX2R agonists may be readily determined without undue experimentation by methodology well known in the art. Both the OX1R and/or OX2R G-coupled protein receptors (GPCRs) couple through the Gαq signaling pathway, which ultimately promotes calcium mobilization via inositol triphosphate (IP3) production. The half-life of IP-3 is relatively short, being rapidly metabolized to inositol monophosphate (IP-1), which can be readily detected using a commercially available assay kit (IP-One; Cisbio; cat #621PAPEC) coupled with a cell line expressing the target receptor(s) of interest. The utility of the compounds in accordance with the present invention as orexin receptor OX1R and/or OX2R agonists may be determined utilizing this assay.
In a typical experiment, the OX1 and OX2 receptor agonist activity is determined in accordance with the following general experimental method. Chinese hamster ovary (CHO) cells expressing human OX1R and/or the human OX2R were grown in Iscove's modified DMEM containing glutaMAX™, 1% G418, 100 U/mL penicillin, 100 μg/mL streptomycin and 10% heat-inactivated qualified fetal bovine serum (FBS). The OX2R cells were seeded at 10,000 cells/well/50 μL and the OX1R cells were seeded at 20,000 cells/well/50 μL into 384-well white tissue culture plates (Greiner; cat #781080). All cell/media reagents were from GIBCO-Invitrogen Corp. The seeded cell plate(s) were incubated at 37° C. with 5% CO2 and 85% humidity for 20-24 hours. On the day of the assay, assay-ready compound plates were prepared using an acoustic liquid handler (ECHO; Labcyte), which dispensed sufficient volume of test compound stock (10 mM in DMSO) or 100% DMSO to prepare 10 point, ½-log dilutions in a final volume of 202.5 nL/well in all test wells of a 384-well diamond plate (Labcyte). Following completion of assay-ready plates, importantly, the next three steps were performed with minimal delay: 1) 20 μl of 1× stimulation buffer was added to the compound plate using a Multidrop Combi (small cassette, Thermo Fisher Scientific cat #24073290); 2) culture medium was removed from the cell plate using the Bluewasher plate washer (gentle spin; BlueCatBio); 3) 14 μl of compound/stimulation buffer mixture was added to the cell plate using a Bravo liquid handler (Agilent) prior to incubating cell plates at 37° C. with 5% CO2 and 85% humidity for 1 or 2 hours (OX1R and OX2R, respectively). During this incubation, IP-one detection reagents were prepared (38:1:1 lysis buffer:D2:AB-cryptate reagents). Six μL of mixed detection reagents were added to the cell plate using a Multidrop Combi (small cassette, Thermo Fisher Scientific cat #24073290) and incubated 60 minutes at room temperature in the dark. Fluorescence signal was detected using an Envision plate reader (Perkin Elmer) [LANCE/DELFIA Dual Enh (Em: APC 665; Ex: Cy5 620)].
For each compound, data were fit to a four parameter logistic fit (ActivityBase software) and the EC50 was reported as the inflection point of the resulting curve. Percent effect for each test compound was determined as the percentage of sample raw value/mean max effect, where the mean max effect was derived from the mean raw value of 32 control wells per assay plate (using Orexin A (cat #003-30) at 1 μM for human OX1R and a reference compound at 1 uM with 100% activity previously established by comparison to Orexin A for human OX2R). The intrinsic orexin receptor agonist activity of a compound which may be used in the present invention may be determined by these assays.

Molecules are shown by their SMILES.

`COC(=O)N1[C@@H]2CCC[C@@H]2[C@H](NS(=O)(=O)N(C)C)[C@@H]1CO[C@H]1CC[C@@H](c2ccccc2)CC1` [Example 8, Methyl (2R,3S,3aS,6aR)-3-((N,N-dimethylsulfamoyl)amino)-2-((((1s,4S)-4-phenyl-cyclohexyl)oxy)methyl)hexahydrocyclopenta[b]pyrrole-1(2H)-carboxylate] returned a maximal response (Emax) of 98%. In turn, `COC(=O)N1[C@@H]2COC[C@@H]2[C@H](NS(=O)(=O)CF)[C@@H]1CO[C@H]1CC[C@@H](c2cccc(F)c2)CC1` [Example 6, methyl (2R,3S,3aS,6aS)-3-((fluoromethyl)sulfonamido)-2-((((1s,4S)-4-(3-fluorophenyl)-cyclohexyl)oxy)methyl)hexahydro-1H-furo[3,4-b]pyrrole-1-carboxylate] had an Emax of 102%. Turning to `COC(=O)N1[C@@H]2COC[C@@H]2[C@H](NS(=O)(=O)N(C)C)[C@@H]1CO[C@H]1CC[C@@H](c2cccc(F)c2)CC1` [Example 5, methyl (2R,3S,3aS,6aS)-3-((N,N-dimethylsulfamoyl)amino)-2-((((1s,4S)-4-(3-fluorophenyl)cyclohexyl)oxy)methyl)hexahydro-1H-furo[3,4-b]pyrrole-1-carboxylate], the Emax was found to be 101%. In the case of `COC(=O)N1[C@@H]2CCC[C@@H]2[C@H](NS(C)(=O)=O)[C@@H]1CO[C@H]1CC[C@@H](c2cccc(F)c2)CC1` [Example 1, methyl (2R,3S,3aS,6aR)-2-((((1s,4S)-4-(3-fluorophenyl)cyclohexyl)oxy)methyl)-3-(methylsulfonamido)hexahydrocyclopenta[b]pyrrole-1(2H)-carboxylate] it was 101%; in that of `CC(C)OC(=O)N1[C@@H]2CCC[C@@H]2[C@H](NS(C)(=O)=O)[C@@H]1COC1CCN(c2ncc(F)cn2)CC1` [Example 10, Isopropyl (2R,3S,3aS,6aR)-2-(((1-(5-fluoropyrimidin-2-yl)piperidin-4-yl)oxy)methyl)-3-(methylsulfonamido)hexahydrocyclopenta[b]pyrrole-1(2H)-carboxylate], 103%; in that of `CNS(=O)(=O)N[C@H]1[C@H]2CCC[C@H]2N(C(=O)OC)[C@H]1CO[C@H]1CC[C@@H](c2cccc(F)c2)CC1` [Example 3, methyl (2R,3S,3aS,6aR)-2-((((1s,4S)-4-(3-fluorophenyl)cyclohexyl)oxy)methyl)-3-((N-methylsulfamoyl)amino)hexahydrocyclopenta[b]pyrrole-1(2H)-carboxylate], 98%. The compound `COC(=O)N1[C@@H]2CCC[C@@H]2[C@H](NS(C)(=O)=O)[C@@H]1COC1CCN(c2ncc(F)cn2)CC1` [Example 9, Methyl (2R,3S,3aS,6aR)-2-(((1-(5-fluoropyrimidin-2-yl)piperidin-4-yl)oxy)methyl)-3-(methylsulfonamido)hexahydrocyclopenta[b]pyrrole-1(2H)-carboxylate] gave an Emax of 97%. In the case of `COC(=O)N1[C@@H]2CCC[C@@H]2[C@H](NS(C)(=O)=O)[C@@H]1CO[C@H]1CC[C@@H](c2ccccc2)CC1` [Example 7, Methyl (2R,3S,3aS,6aR)-3-(methylsulfonamido)-2-((((1s,4S)-4-phenylcyclohexyl)oxy)-methyl)hexahydrocyclopenta[b]pyrrole-1(2H)-carboxylate] it was 101%; in that of `COC(=O)N1[C@@H]2COC[C@@H]2[C@H](NS(C)(=O)=O)[C@@H]1CO[C@H]1CC[C@@H](c2cccc(F)c2)CC1` [Example 4, methyl (2R,3S,3aS,6aS)-2-((((1s,4S)-4-(3-fluorophenyl)cyclohexyl)oxy)methyl)-3-(methylsulfonamido)hexahydro-1H-furo[3,4-b]pyrrole-1-carboxylate], 101%. As to `COC(=O)N1[C@@H]2CC[C@@H]2[C@H](NS(C)(=O)=O)[C@@H]1CO[C@H]1CC[C@@H](c2ccccc2)CC1` [Example 11, methyl (1R,3R,4S,5S)-4-(methylsulfonamido)-3-((((1s,4S)-4-phenylcyclohexyl)oxy)methyl)-2-azabicyclo[3.2.0]heptane-2-carboxylate], the Emax was 103%.

`COC(=O)N1[C@@H]2CCC[C@@H]2[C@H](NS(=O)(=O)N(C)C)[C@@H]1CO[C@H]1CC[C@@H](c2cccc(F)c2)CC1` [Example 2, methyl (2R,3S,3aS,6aR)-3-((N,N-dimethylsulfamoyl)amino)-2-((((1s,4S)-4-(3-fluorophenyl)cyclohexyl)oxy)methyl)hexahydrocyclopenta[b]pyrrole-1(2H)-carboxylate] showed a maximal response (Emax) of 101%.

What is called Emax is the size of the effect at its maximum, as opposed to the concentration needed.

The record behind these values is patent US12497362B2, “Cyclopentapyrrole orexin receptor agonists” (Merck Sharp & Dohme LLC, priority 2020, dated 2025).
